Source: patent EP4640686A1, “DEGRADER FOR DEGRADING BRD PROTEIN AND PHARMACEUTICAL COMPOSITION CONTAINING SAME” (Innocure Therapeutics, Inc., priority 2022, dated 2024)
Read-outs that look alike come from different tables or passages of the source. Values belong to the molecule of their own block, whether it stands above or below them.

Columns and labels:
Assay type in all cases: cell-based
SNU2972 = test: Cancer cell antiproliferative activity / cell viability in SNU2972 cells (72 h treatment); details: read-out: BRD4 (IC50)
Description: (§1) The human breast cancer cell line [MDA-MB-231] was cultured in RPMI medium with the addition of 10% fetal bovine serum, penicillin [100U/ml], and streptomycin [[…]]. The synthesized compounds were prepared with a 10 mM or 50 mM raw material solution dissolved in DMSO [dimethyl sulfoxide], and were diluted sequentially and treated. [RPMI2650] and [SNU2972] were cultivated under specific conditions.
(§2) To observe cell growth inhibition, cells were dispensed in a concentration of 5,000 cells/well in a 96-well plate, and samples prepared at various concentrations were treated for 72 hours. The IC50 value (the concentration of the compound achieving 50% cytostaticism) is the average value of the results of three independent measurements.

BRD4 [1] = biological target: T1, BRD4 (Homo sapiens, UniProt O60885); test: BRD4 protein degradation by western blotting in RPMI2650 cells (24 h treatment); set-up: To evaluate the resolution of PROTAC for BRD4 expressed in cells; endogenous in cells; host or cells: RPMI2650
Summary of the method: (§3)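 Cells seeded at 5 X 10^5 cells/well and exposed to serially diluted compound for 24 hours. Western blot bands were quantified by densitometry, normalized to β-actin or GAPDH and expressed as % of 0.1% DMSO vehicle. DC50 is the concentration giving 50% loss of protein.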

MDA-MB-231 = test: Cancer cell antiproliferative activity / cell viability in MDA-MB-231 cells (72 h treatment); details: Homo sapiens, read-out: BRD4 (IC50)
Description: as §1, §2

BRD4 [2] = biological target: T1, BRD4; test: BRD4 protein degradation by western blotting in MDA-MB-231 cells (24 h treatment); set-up: To evaluate the resolution of PROTAC for BRD4 expressed in cells; endogenous in cells; host or cells: MDA-MB-231
BRD4-NUT = biological target: T2, BRD4-NUT (Homo sapiens, UniProt O60885+Q86Y26); test: BRD4-NUT protein degradation by western blotting in RPMI2650 cells (24 h treatment)
T2 construct: endogenous in cells; host or cells: RPMI2650
Summary of the method: as §3

RPMI2650 = test: Cancer cell antiproliferative activity / cell viability in RPMI2650 cells (72 h treatment)
Summary of the method: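 RPMI2650 human cells were grown under specific culture conditions and seeded at 5,000 cells/well in 96-well plates. Test compounds, dissolved in DMSO as 10 mM or 50 mM stock solutions and serially diluted, were applied at various concentrations for 72 hours. IC50, the concentration giving 50% cytostasis, was averaged over three independent measurements.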

[3] = read-out: BR04 (DC50), RPMI2650
[4] = read-out: BRD4-NUT (DC50), RPMI2650
[5] = Homo sapiens, RPMI-2650, RPMI2650, read-out: BRD4 (IC50)
[6] = RPM12650, read-out: BRD4 (DC50)
[7] = RPM12650, read-out: BRD4-NUT (DC50)
[8] = Homo sapiens, RPMI-2650, RPM12650, read-out: Cell Viatility (IC50)

SMILES: Cc1sc2c(c1C)C(c1ccc(Cl)cc1)=N[C@@H](CC(=O)N1CCC(CN3CCN(c4cc5cnn(C6CCC(=O)NC6=O)c(=O)c5cc4F)CC3)CC1)c1nnc(C)n1-2 (stereo partly drawn) [ICT-0000971, 3-(6-(4-((1-(2-((S)-4-(4-chlorophenyl)-2,3,9-trimethyl-6H-thieno[3,2-f][1,2,4]triazolo[4,3-a][1,4]diazepine-6-day)acetyl)piperidine-4-il)methyl)piperazine-1-yl)7-fluoro-1-oxopthalazine-2(1H)-yl)piperidine-2,6-dione]
IC50 (SNU2972): < 0.1 µM
DC50 (BRD4 [1]; [3]): < 0.1 µM
IC50 (MDA-MB-231): < 0.1 µM
DC50 (BRD4 [2]): < 0.1 µM
DC50 (BRD4-NUT; [4]): < 0.1 µM
IC50 (RPMI2650; [5]): < 0.1 µM

SMILES: Cc1sc2c(c1C)C(c1ccc(Cl)cc1)=N[C@@H](CC(=O)Nc1ccc(N3CCN(c4ccc5c(=O)n(C6CCC(=O)NC6=O)nc(C)c5c4)CC3)cc1)c1nnc(C)n1-2 (stereo partly drawn) [ICT-0001410, 2-((S)-4-(4-chlorophenyl)-2,3,9-trimethyl-6H-thieno[3,2-f][1,2,4]triazolo[4,3-a][1,4]diazepine-6-yl)-N-(4-(4-(2-(2,6-dioxopiperidin-3-yl)-4-methyl-1-oxo-1,2-dihydroptalazine-6-yl)piperazine-1-yl)phenyl)acetamide]
DC50 (BRD4 [1]; [3]): < 0.1 µM
IC50 (MDA-MB-231): < 0.1 µM
DC50 (BRD4 [2]): < 0.1 µM
DC50 (BRD4-NUT; [4]): < 0.1 µM
IC50 (RPMI2650; [5]): < 0.1 µM

SMILES: Cc1sc2c(c1C)C(c1ccc(Cl)cc1)=N[C@@H](CC(=O)Nc1ccc(CN3CCN(c4ccc5c(=O)n(C6CCC(=O)NC6=O)nc(C)c5c4)CC3)cc1)c1nnc(C)n1-2 (stereo partly drawn) [ICT-0001423, 2-[(9S)-7-(4-chlorophenyl)-4,5,13-trimethyl-3-thia-1,8,11,12-tetraazatricyclo[8.3.0.0^2,^6]trideca-2(6),4,7,10,12-pentaene-9-yl]-N-[4-({4-[2-(2,6-dioxopiperidin-3-yl)-4-methyl-1-oxo-1,2-dihydroptalazine-6-yl]piperazine-1-yl}methyl)phenyl]acetamide]
DC50 (BRD4 [1]; [3]): < 0.1 µM
IC50 (MDA-MB-231): < 0.1 µM
DC50 (BRD4 [2]): < 0.1 µM
DC50 (BRD4-NUT; [4]): < 0.1 µM
IC50 (RPMI2650; [5]): < 0.1 µM

SMILES: CC[C@@H]1c2nnc(C)n2-c2cnc(Nc3ccc(C(=O)NCCCC#Cc4ccc5c(=O)n(C6CCC(=O)NC6=O)ncc5c4)cc3OC)nc2N1CC1CCCCC1 (stereo partly drawn) [ICT-0001515, 4-(((R)-5-(cyclohexylmethyl)-4-ethyl-1-methyl-4,5-dihydro-[1,2,4]triazolo[4,3-f]pteridine-7-yl)amino)-N-(5-(2-(2,6-dioxopiperidin-3-yl)-1-oxo-1,2-dihydroptalazine-6-yl)pent-4-phosphorus-1-yl)-3-methoxybenzamide]
DC50 (BRD4 [1]; [6]): > 1 µM
DC50 (BRD4-NUT; [7]): > 1 µM
IC50 (RPMI2650; [8]): > 1 µM

SMILES: Cc1sc2c(c1C)C(c1ccc(Cl)cc1)=N[C@@H](CC(=O)Nc1ccc(CN3CCN(c4ccc(NC5CCC(=O)NC5=O)cc4F)CC3)cc1)c1nnc(C)n1-2 (stereo partly drawn) [ICT-0001441, 2-[(9S)-7-(4-chlorophenyl)-4,5,13-trimethyl-3-thia-1,8,11,12-tetraazatricyclo[8.3.0.0^2,^6]trideca-2(6),4,7,10,12-pentaene-9-yl]-N-{4-[(4-{4-[(2,6-dioxopiperidine-3-yl)amino]-2-fluorophenyl}piperazine-1-yl)methyl]phenyl}acetamide]
DC50 (BRD4 [1]; [3]): < 0.1 µM
DC50 (BRD4-NUT; RPMI2650, read-out: BRD4-NUT (DC50)): < 0.1 µM
IC50 (RPMI2650; [5]): < 0.1 µM

SMILES: CC[C@@H]1c2nnc(C)n2-c2cnc(Nc3ccc(C(=O)N4CCN(CCNc5cccc6c(=O)n(C7CCC(=O)NC7=O)ncc56)CC4)cc3OC)nc2N1CC1CCCCC1 (stereo partly shown) [ICT-0001602]
DC50 (BRD4 [1]; [6]): < 0.1 µM
DC50 (BRD4-NUT; [7]): 0.1 to 1 µM
IC50 (RPMI2650; [8]): > 1 µM

SMILES: CC[C@@H]1c2nnc(C)n2-c2cnc(Nc3ccc(C(=O)N4CCN(CCNc5cccc6cnn(C7CCC(=O)NC7=O)c(=O)c56)CC4)cc3OC)nc2N1CC1CCCCC1 (stereo partly drawn) [ICT-0001601, 3-(8-((2-(4-(4-(((R)-5-(cyclohexylmethyl)-4-ethyl-1-methyl-4,5-dihydro-[1,2,4]triazolo[4,3-f]pteridine-7-yl)amino)3-methoxybenzoyl)piperazine-1-il)ethyl)amino)1-oxopthalazine-2(1H)-yl)piperidine-2,6-dione]
DC50 (BRD4 [1]; [6]): < 0.1 µM
DC50 (BRD4-NUT; [7]): < 0.1 µM
IC50 (RPMI2650; [8]): < 0.1 µM

SMILES: Cc1sc2c(c1C)C(c1ccc(Cl)cc1)=N[C@@H](CC(=O)Nc1ccc(OC[C@@H]3CN(c4ccc5c(=O)n(C6CCC(=O)NC6=O)nc(C)c5c4)CCO3)cc1)c1nnc(C)n1-2 (stereo partly drawn) [ICT-0001430, 2-[(9S)-7-(4-chlorophenyl)-4,5,13-trimethyl-3-thia-1,8,11,12-tetraazatricyclo[8.3.0.0^2,^6]trideca-2(6),4,7,10,12-pentaene-9-yl]-N-(4-{[(2S)-4-[2-(2,6-dioxopiperidin-3-yl)-4-methyl-1-oxo-1,2-dihydroptalazine-6-yl]morpholine-2-yl]methoxy}phenyl)acetamide]
DC50 (BRD4 [1]; [3]): < 0.1 µM
DC50 (BRD4-NUT; [4]): < 0.1 µM
IC50 (RPMI2650; [5]): 0.1 to 1 µM

DC50 (BRD4 [1]; [6]): > 1 µM
DC50 (BRD4-NUT; [7]): > 1 µM
IC50 (RPMI2650; RPM12650, read-out: Cell Viatility (IC50)): 0.1 to 1 µM
SMILES: CC[C@H]1c2nnc(C)n2-c2cnc(Nc3ccc(C(=O)NC4CCN(CCC5CCN(c6ccc(NC7CCC(=O)NC7=O)cc6F)CC5)CC4)cc3OC)nc2N1CC1CCCCC1 (stereo partly drawn) [ICT-0001562, 4-{[(4S)-5-(cyclohexylmethyl)-4-ethyl-1-methyl-4H,5H-[1,2,4]triazolo[4,3-f]pteridine-7-yl]amino}-N-{1-[2-(1-{4-[(2,6-dioxopiperidin-3-yl)amino]-2-fluorophenyl}piperidine-4-yl)ethyl]piperidine-4-yl}-3-methoxybenzamide]

DC50 (BRD4 [1]; [6]): > 1 µM
DC50 (BRD4-NUT; [7]): > 1 µM
IC50 (RPMI2650; Homo sapiens, RPMI-2650, 72 h, RPM12650, read-out: Cell Viatility (IC50)): 0.1 to 1 µM
SMILES: CC[C@@H]1c2nnc(C)n2-c2cnc(Nc3ccc(C(=O)NC4CCN(C(=O)CCN5CCN(c6ccc(NC7CCC(=O)NC7=O)cc6F)CC5)CC4)cc3OC)nc2N1CC1CCCCC1 (stereo partly drawn) [ICT-0001578, 4-{[(4R)-5-(cyclohexylmethyl)-4-ethyl-1-methyl-4H,5H-[1,2,4]triazolo[4,3-f]pteridine-7-yl]amino}-N-{1-[3-(4-{4-[(2,6-dioxopiperidin-3-yl)amino]-2-fluorophenyl}piperazine-1-yl)propanoyl]piperidine-4-yl}-3-methoxybenzamide]

SMILES: CC[C@@H]1c2nnc(C)n2-c2cnc(Nc3ccc(C(=O)N4CC(CN5CCN(c6ccc7c(=O)n(C8CCC(=O)NC8=O)nc(C)c7c6)CC5)C4)cc3OC)nc2N1CC1CCCCC1 (stereo partly drawn) [ICT-0001557, 3-(6-(4-((1-(4-(((R)-5-(cyclohexylmethyl)-4-ethyl-1-methyl-4,5-dihydro-[1,2,4]triazolo[4,3-f]pteridine-7-yl)amino)3-methoxybenzoyl)azetidine-3-yl)methyl)piperazine-1-yl)4-methyl-1-oxopthalazine-2(1H)-yl)piperidine-2,6-dione]
DC50 (BRD4 [1]; [6]): < 0.1 µM
DC50 (BRD4-NUT; [7]): > 1 µM
IC50 (RPMI2650; [8]): > 1 µM

SMILES: CC[C@@H]1c2nnc(C)n2-c2cnc(Nc3ccc(C(=O)N4CCN(c5ccc6c(=O)n(C7CCC(=O)NC7=O)nc(C)c6c5)CC4)cc3OC)nc2N1CC1CCCCC1 (stereo partly drawn) [ICT-0001576, 3-{6-[4-(4-{[(4R)-5-(cyclohexylmethyl)-4-ethyl-1-methyl-4H,5H-[1,2,4]triazolo[4,3-f]pteridine-7-yl]amino}-3-methoxybenzoyl)piperazine-1-yl]-4-methyl-1-oxo-1,2-dihydroptalazine-2-yl}piperidine-2,6-dione]
DC50 (BRD4 [1]; [6]): < 0.1 µM
DC50 (BRD4-NUT; [7]): < 0.1 µM
IC50 (RPMI2650; [8]): > 1 µM
